Where a name gives a salt, the structure may show the parent alone. Read-outs that look alike come from different tables or passages of the source.
System: murine neural precursor cells (neurosphere cultures)
Assay: HTS of LOPAC library against secondary neurosphere cultures, MTT proliferation assay at 3 μM, day 7 (z score, P value)
Type: cell-based, mouse
[1] = yes/no: significantly inhibited neurosphere proliferation (P<0.01) in the primary screen
[2] = LOPAC library screen at 3 μM, secondary neurosphere cultures, MTT
[3] = LOPAC primary screen, neurosphere MTT proliferation, 3 μM, day 7
[4] = yes/no: significantly inhibited neurosphere proliferation (P<0.01) in primary screen
[5] = LOPAC library screen at 3 μM, MTT, secondary neurosphere cultures, screened in singlets
[6] = LOPAC library screen, 3 μM, MTT, neurosphere cultures
[7] = LOPAC library screen, 3 μM, MTT, secondary neurosphere cultures, day 7

SMILES | Z score [3] | Activity [4] | Z Score | further results
OCCN1CCN(CCCN2c3ccccc3Sc3ccc(C(F)(F)F)cc32)CC1 [Fluphenazine dihydrochloride] |  |  |  | Z Score (168 h, 3 µM): −10.2; Z score (168 h, 3 µM): −10.197; Activity [1]: yes
CCOC(=O)Nc1ccc(NCc2ccc(F)cc2)nc1N [Flupirtine maleate] | −0.484 | no |  | Z Score [2]: −0.484
O=C1NCN(c2ccccc2)C12CCN(CCCC(c1ccc(F)cc1)c1ccc(F)cc1)CC2 [Fluspirilene] | 1.589 |  |  | Activity: no; Z Score [5]: 1.589
CC(C)C(=O)Nc1ccc([N+](=O)[O-])c(C(F)(F)F)c1 [Flutamide] | −0.113 |  |  | Z Score [2]: −0.1133
COCCCC/C(=N\OCCN)c1ccc(C(F)(F)F)cc1 [Fluvoxamine maleate] | 0.132 |  |  | Activity: no; Z Score [6]: 0.1323
C=C[C@@]1(C)CC(=O)[C@]2(O)[C@@]3(C)[C@@H](O)CCC(C)(C)[C@@H]3[C@H](O)[C@H](OC(C)=O)[C@@]2(C)O1 [Forskolin] | −1.331 |  |  | Z Score [7]: −1.331
Cc1nc2c([nH]1)c(=O)n(C)c(=O)n2Cc1ccco1 [Furafylline] | 1.025 | no |  | Z Score [6]: 1.025
O=C(O)c1cc2cc(Cc3cccnc3)ccc2o1 [Furegrelate sodium] | 0.364 | no |  | Z Score [6]: 0.3638
NS(=O)(=O)c1cc(C(=O)O)c(NCc2ccco2)cc1Cl [Furosemide] | 1.889 |  |  | Activity: no; Z Score [5]: 1.889
CCCCc1ccc(C(=O)O)nc1 [Fusaric acid] | −0.141 |  | −0.1413 | 
CC(=O)O[C@H]1C[C@@]2(C)[C@@H](C[C@@H](O)[C@H]3[C@@]4(C)CC[C@@H](O)[C@@H](C)[C@@H]4CC[C@@]32C)/C1=C(\CCC=C(C)C)C(=O)O [Fusidic acid sodium] | 2.045 | no |  | Z Score [5]: 2.045
NCCCC(=O)O [GABA] |  |  | −0.4389 | Z score (primary LOPAC screen, 3 μM, MTT, neurosphere proliferation): −0.439; Activity (yes/no: significantly inhibited neurosphere proliferation in the primary screen): no
Fc1ccc(C(OCCN2CCN(CCCc3ccccc3)CC2)c2ccc(F)cc2)cc1 [GBR-12909 dihydrochloride] | −10.899 |  |  | Z Score [7]: −10.9
Cl.Cl.c1ccc(CCCN2CCN(CCOC(c3ccccc3)c3ccccc3)CC2)cc1 [GBR-12935 dihydrochloride] | −11.274 |  | −11.27 | Activity [1]: yes
COc1ccc(CNC(=O)/C=C/c2ccc3[nH]cc(CCN(C)C)c3c2)cc1 [GR 4661] | 0.102 |  | 0.1015 | Activity (yes = significantly inhibited neurosphere proliferation (P<0.01) in the primary screen): no
Cn1cc(C(=O)OCC2CCN(CCNS(C)(=O)=O)CC2)c2ccccc21 [GR 113808] | 0.992 |  | 0.992 | Activity [1]: no
COc1[nH]c2ccc(F)cc2c1C(=O)OCC1CCN(CCNS(C)(=O)=O)CC1.NS(=O)(=O)O [GR 125487 sulfamate salt] | −0.194 | no |  | Z Score [2]: −0.1942
COc1ccc(NC(=O)c2ccc(-c3ccc(-c4noc(C)n4)cc3C)cc2)cc1N1CCN(C)CC1 [GR 127935 hydrochloride] | −1.081 |  |  | Z Score [2]: −1.081; Activity [1]: no
CN(CCOc1ccc(C[C@H](Nc2ccccc2C(=O)c2ccccc2)C(=O)O)cc1)c1ccccn1 [GW1929] | 0.015 | no | 0.01508 | 
CN(C)c1cc2c(Nc3ccc4c(cnn4Cc4ccccc4)c3)ncnc2cn1 [GW2974] | −0.516 | no | −0.5164 | 
O=C1Nc2ccc(I)cc2/C1=C/c1cc(Br)c(O)c(Br)c1 [GW5074] | −0.162 | no | −0.1619 | 
CC(C)(Sc1ccc(CCN(CCCCC2CCCCC2)C(=O)NC2CCCCC2)cc1)C(=O)O [GW7647] | −0.992 | no | −0.9923 | 

— patent publication US8058243B2, “Method for treating a brain cancer with ifenprodil” (HSC Research and Development Limited Partnership, priority 2006, dated 2011)
